From patent US20150141448A1, “Topical Ophthalmological Pharmaceutical Composition containing Pazopanib” (BAYER HEALTHCARE LLC, priority 2012, published 2015)
Where a name gives a salt, the structure may show the parent alone.

Test: Solubility in lipophilic vehicles
Format: physicochemical
Conditions: lipophilic vehicles like liquid or light liquid paraffin

## Cc1ccc(Nc2nccc(N(C)c3ccc4c(C)n(C)nc4c3)n2)cc1S(N)(=O)=O [pazopanib hydrochloride, 5-[[4-[(2,3-Dimethyl-2H-indazol-6-yl)methylamino]-2-pyrimidinyl]amino]-2-methylbenzolsulfonamide]
  solubility in lipophilic vehicles: very low
